{
  "source": "patent US20240287066A1",
  "about": "“Crystalline Form of Sotorasib” (Sandoz AG, priority 2021, published 2024)",
  "key": {"[1]": {"conditions": "cited from earlier work; for Mass increase from 0-90% RH at 25° C.: GMS, data from paragraph [0334] on page 46 of WO 2020/236947 A1; for hygroscopic behaviour (in words): GMS data of WO 2020/236947 A1, 0-90% RH, 25° C."}, "[2]": {"assay": "Powder dissolution in acetate buffer pH 4.5 and phosphate buffer pH 6.8", "format": "physicochemical", "conditions": "for phase change by PXRD during the dissolution experiments: acetate buffer pH 4.5 and phosphate buffer pH 6.8, 37° C., up to 24 hours; for solubility compared to crystalline Form I (in words): 15 minutes to 24 hours", "protocol": "Powder dissolution experiments were carried out at a temperature of 37° C. in acetate buffer pH 4.5 and phosphate buffer pH 6.8 for the crystalline Form I of sotorasib disclosed in WO 2020/236947 A1 and the crystalline Form A of sotorasib of the present invention. Particle sizes of both forms were kept as similar as possible to allow for proper comparison. The respective concentrations were determined at a wavelength of 293 nm in case of the acetate buffer and at 354 nm in case of the phosphate buffer."}, "[3]": {"assay": "Gravimetric moisture sorption (GMS) of sotorasib Form A", "format": "physicochemical", "protocol": "Gravimetric moisture sorption was performed with an SPSx-1μ moisture sorption analyzer (ProUmid, Ulm). The measurement cycle was started at ambient relative humidity (RH) of 40%. RH was then decreased to 5% in 5% steps, followed by a further decrease to 3% and to 0%. […] Finally, RH was increased to ambient relative humidity of 40% in 5% steps. The time per step was set to a minimum of 2 hours and a maximum of 6 hours. If an equilibrium condition with a constant mass of ±0.01% within 1 hour was reached before the maximum time for all examined samples the sequential humidity step was applied before the maximum time of 6 hours. If no equilibrium was achieved the consecutive humidity step was applied after the maximum time of 6 hours. The temperature was (25±0.1)° C."}, "[4]": {"assay": "Stress stability (temperature and humidity stress, PXRD read-out)", "format": "physicochemical", "conditions": "for solid form by PXRD after stress storage: 30 weeks, open stored in glass vials", "text": "Sotorasib Form A of the present invention was subjected to various temperature and humidity stress conditions for 30 weeks as outlined in Table 3 below. The samples were open stored in glass vials."}},
  "note": "Where two headings read alike, the source gives them in different places.",
  "data": [
    {"smiles": "C=CC(=O)N1CCN(c2nc(=O)n(-c3c(C)ccnc3C(C)C)c3nc(-c4c(O)cccc4F)c(F)cc23)[C@@H](C)C1", "note": "[Form I of WO 2020/236947 A1, 6-fluoro-7-(2-fluoro-6-hydroxyphenyl)-1-(4-methyl-2-(2-propanyl)-3-pyridinyl)-4-((2S)-2-methyl-4-(2-propenoyl)-1-piperazinyl)pyrido[2,3-d]pyrimidin-2(1H)-one]", "values": [
      {"measurement": "Mass increase from 0-90% RH at 25° C.", "setting": "[1]", "result": "+0.5-1.0% ^"},
      {"measurement": "Mass increase from 0-90% RH at 25° C.", "setting": "[1]; listed as Form I", "result": "0.5-1.0%"},
      {"measurement": "phase change by PXRD during the dissolution experiments", "setting": "[2]", "result": "no phase changes occurred"}
    ]},
    {"smiles": "C=CC(=O)N1CCN(c2nc(=O)n(-c3c(C)ccnc3C(C)C)c3nc(-c4c(O)cccc4F)c(F)cc23)[C@@H](C)C1", "note": "[Form II of WO 2020/236947 A1, 6-fluoro-7-(2-fluoro-6-hydroxyphenyl)-1-(4-methyl-2-(2-propanyl)-3-pyridinyl)-4-((2S)-2-methyl-4-(2-propenoyl)-1-piperazinyl)pyrido[2,3-d]pyrimidin-2(1H)-one]", "values": [
      {"measurement": "hygroscopic behaviour (in words)", "setting": "[1]", "result": "hygroscopic"},
      {"measurement": "Mass increase from 0-90% RH at 25° C.", "setting": "[1]", "result": "+2-2.5%^"}
    ]},
    {"smiles": "C=CC(=O)N1CCN(c2nc(=O)n(-c3c(C)ccnc3C(C)C)c3nc(-c4c(O)cccc4F)c(F)cc23)[C@@H](C)C1", "note": "[Form III of WO 2020/236947 A1, 6-fluoro-7-(2-fluoro-6-hydroxyphenyl)-1-(4-methyl-2-(2-propanyl)-3-pyridinyl)-4-((2S)-2-methyl-4-(2-propenoyl)-1-piperazinyl)pyrido[2,3-d]pyrimidin-2(1H)-one]", "values": [
      {"measurement": "hygroscopic behaviour (in words)", "setting": "[1]", "result": "hygroscopic"},
      {"measurement": "Mass increase from 0-90% RH at 25° C.", "setting": "[1]", "result": "+7.0%"}
    ]},
    {"smiles": "C=CC(=O)N1CCN(c2nc(=O)n(-c3c(C)ccnc3C(C)C)c3nc(-c4c(O)cccc4F)c(F)cc23)[C@@H](C)C1", "note": "[Sotorasib Form A, 6-fluoro-7-(2-fluoro-6-hydroxyphenyl)-1-(4-methyl-2-(2-propanyl)-3-pyridinyl)-4-((2S)-2-methyl-4-(2-propenoyl)-1-piperazinyl)pyrido[2,3-d]pyrimidin-2(1H)-one]", "values": [
      {"measurement": "hygroscopic behaviour (in words)", "setting": "[3]; GMS, 0-90% RH, 25° C.", "result": "slightly hygroscopic"},
      {"measurement": "mass difference in the sorption cycle between 0 and 90% RH", "setting": "[3]; GMS, 0-90% RH, (25±0.1)° C.", "result": "about 0.4 w-%"},
      {"measurement": "Mass increase from 0-90% RH at 25° C.", "setting": "[3]; GMS, data from FIG. 4 of present invention", "result": "+0.4%"},
      {"measurement": "PXRD of the sample after the GMS experiment", "setting": "[3]; after sorption/desorption cycle 0-90% RH, 25° C.", "result": "same PXRD"},
      {"measurement": "solubility compared to crystalline Form I (in words)", "setting": "[2]; acetate buffer pH 4.5, 37° C., FIG. 5", "result": "significantly increased solubility"},
      {"measurement": "equilibrium solubility after 24 hours compared to crystalline Form I", "setting": "[2]; acetate buffer pH 4.5, 37° C.", "result": "about 3 fold"},
      {"measurement": "phase change by PXRD during the dissolution experiments", "setting": "[2]", "result": "no phase changes occurred"},
      {"measurement": "solubility compared to crystalline Form I (in words)", "setting": "[2]; phosphate buffer pH 6.8, 37° C., FIG. 6", "result": "significantly increased solubility"},
      {"measurement": "equilibrium solubility after 24 hours compared to crystalline Form I", "setting": "[2]; phosphate buffer pH 6.8, 37° C.", "result": "about 2 fold"},
      {"measurement": "solid form by PXRD after stress storage", "setting": "[4]; 25° C./60% RH", "result": "Form A"},
      {"measurement": "solid form by PXRD after stress storage", "setting": "[4]; 30° C./65% RH", "result": "Form A"},
      {"measurement": "solid form by PXRD after stress storage", "setting": "[4]; 40° C./75% RH", "result": "Form A"},
      {"measurement": "solid form by PXRD after stress storage", "setting": "[4]; RT/0% RH", "result": "Form A"},
      {"measurement": "solid form by PXRD after stress storage", "setting": "[4]; RT/97% RH", "result": "Form A"},
      {"measurement": "phase change by PXRD at any stress condition", "setting": "[4]; all temperature and humidity stress conditions of Table 3, 30 weeks", "result": "no phase change occurred"}
    ]}
  ]
}
